Molecules are shown by their SMILES.

Drawing on patent publication US12365674B2, “Inhibitors of histone deacetylase useful for the treatment or prevention of HIV infection” (Merck Sharp & Dohme LLC, priority 2019, dated 2025), this text covers IC50 for 16 compounds.

The target in the experiment is T1, human HDAC1 (Homo sapiens, UniProt Q13547).
T1 construct: Full length human HDAC1-FLAG was stably expressed in HEK-293F cells; host or cells: HEK-293F cells
The experiment is described as follows: Human HDAC enzyme inhibitor Fluor-de-Lys assay, HDAC1. In kind it is biochemical. The settings on record: 0.3 nM enzyme, 20 μM substrate BML-KI104, 3 h pre-incubation, 60 min reaction; read-out: HDAC1_IC50. From the text: Recombinant human HDAC8 (catalog number BML-SE145-0100) and HDAC10 (catalog number BML-SE559-0050) enzymes, HDAC substrates BML-KI104 and BML-KI178, and HDAC developer solutions BML-KI105 and BML-KI176 were purchased from Enzo Life Sciences (Farmingdale, NY). Recombinant human HDAC5 and HDAC11 were purchased from BPS Bioscience (San Diego, CA)(catalog numbers 50045 and 50021). Substrate Boc-Lys(TFA)-AMC was obtained from Bachem (Bupendorf, Switzerland) (catalog number 1-1985). HDAC inhibitor suberoylanilide hydroxamic acid (SAHA) was obtained from Indofine (Hillsborough Township, NJ) and trichostatin A (TSA) was obtained from Sigma-Aldrich (St. Louis, MO). […] HEPES pH 8.0 was obtained from Boston BioProducts (Ashland, MA), Tween-20 from Fisher Scientific (Hampton, NH)(catalog number BP337), TCEP from Calbiochem and 7.5% bovine serum albumin (BSA) from Life Technologies (Carlsbad, CA) (catalog number 15260037). 384-well, black assay plates were obtained from Corning (Corning, NY) (catalog number 3575).
Recombinant human HDAC1, HDAC2, and HDAC3/SMRT heterodimer were prepared by Merck Research Laboratories. […] The eluted protein was then passed over an anti-HDAC1 immunoaffinity column to remove any complexes containing HDAC1. […]
The histone deacetylase activities of HDAC1, HDAC2, HDAC3, HDAC6, and HDAC8 were measured in modified Fluor-de-Lys assays in 384-well format. In this assay, HDAC enzymes are initially incubated with an ε-acetyl (or -trifluoroacetyl)-L-lysine-containing substrate with a C-terminal amide having aminomethylcoumarin as the amine component. HDACs cleave the ε-acetyl group, rendering the resulting product susceptible to AMC cleavage by trypsin. The released AMC is then detected by its fluorescence.
The HDAC 1, 2 assays employed buffer A, which contained 20 mM HEPES, pH 8.0, 1 mM MgCl2, 137 mM NaCl, 2.7 mM KCl, 0.05% BSA. The HDAC3/SMRT assay employed buffer B, consisting of 20 mM HEPES, pH 8.0, 1 mM MgCl2, 50 mM NaCl, 2.7 mM KCl, 0.05% BSA, 0.005% Tween 20, and 10 μM IP4. The HDAC6 assay employed buffer C, consisting of 20 mM HEPES, pH 8.0, 1 mM MgCl2, 137 mM NaCl, 2.7 mM KCl, 0.5 mM TCEP (Calbiochem) and 0.05% BSA. The HDAC8 assay employed buffer D, consisting of 20 mM HEPES, pH 8.0, 1 mM MgCl2, 100 mM NaCl, 20 mM KCl, 0.1% n-octyl-β-D-glucoside (Anatrace, Maumee, OH) and 0.05% BSA. All steps were performed at room temperature (23° C.). The assay was performed by pre-incubating serial dilutions of test compounds with the target HDAC prior to initiation with substrate. Each compound was titrated in a 10-point dose response, using a 1:3 fold dilution scheme, with 0.15 ul of solution added by ECHO555 to the plate, followed by the addition of 20 μl of the appropriate HDAC isoform diluted in appropriate assay buffer. […] Final conditions used for each assay were: 1. HDAC 1, 0.3 nM total enzyme, 20 μM substrate BML-K1104; 2. HDAC 2, 1.5 nM total enzyme, 40 μM substrate BML-K1104; 3. HDAC 3/SMRT, 0.3 nM total enzyme, 20 μM substrate BML-K1104; 4. HDAC 6, 1.3 nM total enzyme, 2.5 μM substrate BML-K1104; 5. HDAC 8, 1.3 nM total enzyme, 200 μM substrate BML-K1178; the final high dose of test compound was 30 μM. […] The reactions were stopped and developed by addition of 30 ul of HDAC developer solution containing a saturating level of HDAC inhibitor as follows: 1.

T1 sequence (Q13547 whole entry): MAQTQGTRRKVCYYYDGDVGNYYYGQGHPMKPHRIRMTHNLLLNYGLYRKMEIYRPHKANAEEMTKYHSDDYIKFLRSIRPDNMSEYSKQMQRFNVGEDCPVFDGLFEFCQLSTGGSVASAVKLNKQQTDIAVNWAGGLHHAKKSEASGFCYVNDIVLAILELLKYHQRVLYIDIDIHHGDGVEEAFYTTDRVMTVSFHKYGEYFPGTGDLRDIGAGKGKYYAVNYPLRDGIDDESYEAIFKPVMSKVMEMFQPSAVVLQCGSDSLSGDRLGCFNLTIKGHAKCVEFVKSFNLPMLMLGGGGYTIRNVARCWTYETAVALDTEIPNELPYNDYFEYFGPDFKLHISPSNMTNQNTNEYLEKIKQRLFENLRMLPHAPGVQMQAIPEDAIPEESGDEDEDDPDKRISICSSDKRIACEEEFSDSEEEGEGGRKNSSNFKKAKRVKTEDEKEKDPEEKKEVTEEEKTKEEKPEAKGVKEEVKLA

As for `COc1nc2ccccc2cc1-c1cnc([C@@H](N)COCCCC(=O)c2ncco2)[nH]1` [Compound 1, (R)-4-(2-amino-2-(5-(2-methoxyquinolin-3-yl)-1H-imidazol-2-yl)ethoxy)-1-(oxazol-2-yl)butan-1-one], the IC50 amounted to 288 nM.
For the compound `N[C@@H](COCCCC(=O)c1ccon1)c1ncc(-c2ccccc2F)[nH]1` [Compound 2, (R)-4-(2-amino-2-(5-(2-fluorophenyl)-1H-imidazol-2-yl)ethoxy)-1-(isoxazol-3-yl)butan-1-one], the IC50 amounted to 602 nM.
`CNC(=O)C(=O)CCCOC[C@H](NC(=O)c1cncs1)c1ncc(-c2cc3ccccc3nc2OC)[nH]1` [Compound 8, N-[(1R)-1-[5-(2-methoxyquinolin-3-yl)-1H-imidazol-2-yl]-2-{[5-(methylamino)-4,5-dioxopentyl]oxy}ethyl]-1,3-thiazole-5-carboxamide]: the IC50 came out at 1.5 nM.
Take `CNC(=O)C(=O)CCCOC[C@H](NC(=O)C12CCN(CC1)CC2)c1ncc(-c2cc3ccccc3nc2OC)[nH]1` [Compound 9, N-[(1R)-1-[5-(2-methoxyquinolin-3-yl)-1H-imidazol-2-yl]-2-{[5-(methylamino)-4,5-dioxopentyl]oxy}ethyl]-1-azabicyclo[2.2.2]octane-4-carboxamide]: the IC50 was determined as 1.5 nM.
The result for `COc1nc2ccccc2cc1-c1cnc([C@H](COCCCC(=O)c2ncco2)NC(=O)c2cncs2)[nH]1` [Compound 10, N-{(1R)-1-[5-(2-methoxyquinolin-3-yl)-1H-imidazol-2-yl]-2-[4-(1,3-oxazol-2-yl)-4-oxobutoxy]ethyl}-1,3-thiazole-5-carboxamide] reads 6.6 nM; that for `COc1nc2ccccc2cc1-c1cnc([C@H](COCCCC(=O)c2ncco2)NC(=O)[C@H]2CC23CCN(C)CC3)[nH]1` [Compound 11, (1S)-N-{(1R)-1-[5-(2-methoxyquinolin-3-yl)-1H-imidazol-2-yl]-2-[4-(1,3-oxazol-2-yl)-4-oxobutoxy]ethyl}-6-methyl-6-azaspiro[2.5]octane-1-carboxamide], 2.1 nM.
The figure for `COc1nc2ccccc2cc1-c1cnc([C@H](COCCCC(=O)c2ncco2)NC(=O)C23CCN(CC2)CC3)[nH]1` [Compound 12, N-{(1R)-1-[5-(2-methoxyquinolin-3-yl)-1H-imidazol-2-yl]-2-[4-(1,3-oxazol-2-yl)-4-oxobutoxy]ethyl}-1-azabicyclo[2.2.2]octane-4-carboxamide] is 4.7 nM.
The result for `COc1nc2ccccc2cc1-c1cnc([C@H](COCCCC(=O)c2ncco2)NC(=O)CN(C)C)[nH]1` [Compound 13, N-{(1R)-1-[5-(2-methoxyquinolin-3-yl)-1H-imidazol-2-yl]-2-[4-(1,3-oxazol-2-yl)-4-oxobutoxy]ethyl}-N~2~,N~2~- dimethylglycinamide] reads 2.7 nM; that for `COc1nc2ccccc2cc1-c1cnc([C@H](COCCCC(=O)c2ccon2)NC(=O)CN(C)C)[nH]1` [Compound 14, N-{(1R)-2-(4-isoxazol-3-yl-4-oxobutoxy)-1-[5-(2-methoxyquinolin-3-yl)-1H-imidazol-2-yl]ethyl}-N~2~,N~2~- dimethylglycinamide], 1.5 nM; that for `CN1CC(C(=O)N[C@@H](COCCCC(=O)c2ccon2)c2ncc(-c3ccccc3F)[nH]2)C1` [Compound 15, N-[(1R)-1-[5-(2-fluorophenyl)-1H-imidazol-2-yl]-2-(4-isoxazol-3-yl-4-oxobutoxy)ethyl]-1-methylazetidine-3-carboxamide], 4 nM.
For `CN1CC(C(=O)N[C@@H](COCCCC(=O)c2ccon2)c2[nH]c(-c3ccc(F)cc3)nc2Cl)C1` [Compound 16, N-[(1R)-1-[4-chloro-2-(4-fluorophenyl)-1H-imidazol-5-yl]-2-(4-isoxazol-3-yl-4-oxobutoxy)ethyl]-1-methylazetidine-3-carboxamide], the IC50 turned out to be 11.8 nM.
As to `CN(C)CC(=O)N[C@@H](COCCCC(=O)c1ccon1)c1[nH]c(-c2ccc(F)cc2)nc1Cl` [Compound 17, N-[(1R)-1-[4-chloro-2-(4-fluorophenyl)-1H-imidazol-5-yl]-2-(4-isoxazol-3-yl-4-oxobutoxy)ethyl]-N~2~,N~2~- dimethylglycinamide], the IC50 worked out at 18.6 nM.
The result for `CN1CCC2(CC1)C[C@@H]2C(=O)N[C@@H](COCCCC(=O)c1ccon1)c1[nH]c(-c2ccc(F)cc2)nc1Cl` [Compound 18, (1S)-N-[(1R)-1-[4-chloro-2-(4-fluorophenyl)-1H-imidazol-5-yl]-2-(4-isoxazol-3-yl-4-oxobutoxy)ethyl]-6-methyl-6-azaspiro[2.5]octane-1-carboxamide] reads 1.4 nM; that for `COc1cc2nc(C)ccc2cc1-c1cnc([C@H](COCCCC(=O)c2cc(C)on2)NC(=O)C2CN(C)C2)[nH]1` [Compound 19, N-{(1R)-1-[5-(7-methoxy-2-methylquinolin-6-yl)-1H-imidazol-2-yl]-2-[4-(5-methylisoxazol-3-yl)-4-oxobutoxy]ethyl}-1-methylazetidine-3-carboxamide], 6.9 nM.
The figure for `COc1cc2nc(C)ccc2cc1-c1cnc([C@H](COCCCC(=O)c2cc(C)on2)NC(=O)[C@H]2CC23CCN(C)CC3)[nH]1` [Compound 20, (1S)-N-{(1R)-1-[5-(7-methoxy-2-methylquinolin-6-yl)-1H-imidazol-2-yl]-2-[4-(5-methylisoxazol-3-yl)-4-oxobutoxy]ethyl}-6-methyl-6-azaspiro[2.5]octane-1-carboxamide] is 3.7 nM; for `Cc1ccc2cc(-c3cnc([C@H](CSCCCC(=O)c4ncco4)NC(=O)[C@H]4CC45CCN(C)CC5)[nH]3)ccc2n1` [Compound 21, (1S)-6-methyl-N-[(1R)-1-[5-(2-methylquinolin-6-yl)-1H-imidazol-2-yl]-2-{[4-(1,3-oxazol-2-yl)-4-oxobutyl]sulfanyl}ethyl]-6-azaspiro[2.5]octane-1-carboxamide] it is 1.5 nM.
